Measurements: paper PMC10759609, “A novel PDPN antagonist peptide CY12-RP2 inhibits melanoma growth via Wnt/β-catenin and modulates the immune cells” (Journal of Experimental & Clinical Cancer Research : CR, 2024)
Peptide text beside a SMILES is read from it.

Key:
PDPN in A875 cells = assay: Immunofluorescence binding/co-localization with PDPN, A875; assay type: cell-based; settings: 5 μM, 10 h, 37 ℃
Description: Immunofluorescence analysis was used for antigen localization and quantification. For PDPN immunofluorescence staining, melanoma cells (A375, A875) were seeded in coverslips, cultured for 24 h, and fixed using 4% paraformaldehyde for 15 min at room temperature (RT). The cells were then permeabilized with 0.2% Triton X-100 in PBS for 10 min. Cells were blocked using 1% bovine serum albumin (BSA) in PBS for 30 min at RT, and incubated with the primary antibody overnight at 4 ℃. Afterwards, cells were washed three times with PBS containing 0.01% Triton X-100 for 5 min, and incubated with Alexa Fluor 568–conjugated secondary antibodies at RT for 1 h. Lastly, the nuclei were dyed with 4’,6-diamidino-2-phenylindole (DAPI) for 5 min at RT, and the slides were imaged using a NIKON laser scanning confocal microscope. To further verify the specificity binding ability of CY12-RP2 with PDPN, immunofluorescence was detected for analysis in melanoma cells. Briefly, A375 or A875 cells were incubated with CY12-RP2 at a concentration of 5 μM for 10 h at 37 ℃, and then washed with DMEM to remove the unbound peptide. The anti-PDPN primary antibody was then incubated for 4 h at RT. Further experimental procedures were performed as described above. […]

melanoma cells = assay: Melanoma cell / stimulated PBMC co-culture killing; assay type: cell-based; settings: PBMC ratios 0%-50%, 48 h, crystal violet
Description: PBMCs (Shenzhen People's Hospital. Shenzhen, China)) from a healthy donor were isolated using a density gradient centrifugation procedure. Firstly, the immune cell proportions analysis of PBMCs was measured using flow cytometry. We then investigated the effect of CY12-RP2 on the cytokines in PBMCs using ELISA assays. Briefly, PBMCs (5 × 10^5 cells/well) were cultured in 24-well plates with RPMI1640 containing 10% FBS for 24 h, and the cells were stimulated with CY12-RP2 (50 µM) for 48 h. Afterward, supernatants were collected for subsequent assays. […] The experimental results were then observed by crystal violet staining after 48 h.

[1] = In vivo biodistribution (His-ELISA); set-up: species or system BALB/c nude mice; settings: His-CY12-RP2, 25 and 100 mg/kg, tail vein
Description: In vivo biodistribution assay was conducted in BALB/c nude mice with melanoma tumor. Here we prepared 15 female BALB/c mice with subcutaneous melanoma tumor, and divided into three groups with each group of five. Mice were treated with His-CY12-RP2 by tail vein administration at various doses (25 mg/kg and 100 mg/kg). We collected at least 50 μL orbital blood samples by using capillary blood vessels at 6 h, 12 h, 24 h, 36 h, and 48 h, respectively. Five mice were used for the study of in vivo biodistribution of peptide. The organs including heart, liver, spleen, lung and kidney were collected after BALB/c nude mice were sacrificed at 48 h. The biodistribution of CY12-RP2 in blood and organs were measured using an ELISA kit (Shenzhen Ziker Biological Technology, Shenzhen, China) following the kit’s instructions.
Fig. S4: The inhibition of cells metastasis and invasion by CY12-RP2 can be […]
(A, B) The inhibition of CY12-RP2 on the migration capacity of melanoma cell lines was reversed by SKL2001 (A). Statistical analysis was performed to determine the migrated distance (B). The power field scale bar, 100 μm. (C, D) Effect of CY12-RP2 on the invasive ability of melanoma cell lines were reversed by SKL2001 (C).
Statistical analysis was performed to count the invaded cells (D). The power field scale bar, 100 μm. (E) Western blot assay was also performed to detect the proteins related to EMT and Wnt/β-catenin signaling pathway, including N-cadherin, Vimentin, snail, Dvl2, Phospho-β-catenin-S675, β-catenin, Phospho-GSK3β-Ser9 and GSK3β by CY12-RP2 with or without SKL2001 (50 μM). Data are presented as mean ± SD. *p < […]
(A) TUNEL analysis of apoptosis was conducted on orthotopic xenografts tumor sections using fluorescence staining. […] (B) Fluorescence staining of Ki67 was carried out on orthotopic xenograft tumor sections.
The power field scale bar, 100 μm. (C) Serum His-CY12-RP2 levels of the orthotopic xenografts mice treated by various dosage of CY12-RP2 were measured by His-ELISA kit. […]
kit. (E) Serum ALT, AST, TG, and γ-GT levels of the orthotopic xenografts model were measured by ELISA. […]

[2] = system: cytokines in mouse plasma; assay: Plasma cytokines in lung metastasis model (ELISA); assay type: in vivo, BALB/c mice; settings: lung metastases model, vs control
Description: The levels of major inflammatory cytokines, including TNF-α, IL-1β, IL-2, TGF-β, IFN-γ, and IL-10, were measured using an ELISA kit (Shenzhen Ziker Biological Technology, Shenzen, China). Briefly, culture supernatants of cells and serum of pulmonary metastasis mouse model were respectively collected and added to an antibody pre-coated 96-well plates, and then followed up according to the manufacturer's instructions.
For pulmonary metastasis assays, 6- to 8-week-old female BALB/c mice were administered with 5 × 10^5 B16F10-Luc cells via tail vein to establish an experimental pulmonary metastasis model of melanoma. CY12-RP2 was administered to the mice intravenously at high and low doses (25 mg/kg and 100 mg/kg) every two days, and the mice were sacrificed after 15 days of treatment. Pulmonary metastases were evaluated using bioluminescence imaging on the 2nd, 5th, 10th, 15th and 20th day after B16F10-Luc cells injection. Subsequently, the BALB/c mice were sacrificed, and the organs including the heart, liver, spleen, lung, and kidney were collected and imaged for evaluation of micrometastases. The xenografts and organs were kept in a 4% paraformaldehyde solution for subsequent histological assays.

Compound: CC(C)C[C@H](NC(=O)[C@H](Cc1ccc(O)cc1)NC(=O)[C@@H](N)[C@@H](C)O)C(=O)N[C@@H](CS)C(=O)N[C@H](C(=O)N[C@@H](C)C(=O)N[C@@H](CS)C(=O)N[C@@H](CC(=O)O)C(=O)N[C@@H](Cc1ccc(O)cc1)C(=O)N[C@H](C(=O)N[C@@H](Cc1c[nH]cn1)C(=O)N[C@@H](Cc1c[nH]cn1)C(=O)O)[C@@H](C)O)[C@@H](C)O [CY12-RP2] (H-TYLCTACDYTHH-OH; N-terminus and C-terminus assumed)
- fluorescence and co-localization with PDPN (PDPN in A875 cells): minimal fluorescence
- viability of tumor cells with CY12-RP2-pretreated PBMC (melanoma cells): declined significantly
- serum level after peak ([1]; serum, 6-48 h): moderately decreased progressively with time
- time of peak serum level ([1]; serum, sampled 6, 12, 24, 36, 48 h): 6 h
- organ distribution ([1]; tumor vs heart, liver, spleen, lung, kidney at 48 h): significant ability to target tumors compared to other organs
- plasma IFN-γ [2]: significantly elevated
- plasma IL-1β [2]: significantly elevated
- plasma IL-2 [2]: reduced
- plasma IL-10 [2]: reduced
- plasma TGF-β [2]: reduced
- plasma TNF-α [2]: significantly elevated
